Our source for the IC50 and DC50 values is patent US12521440B2, “Degradation of bruton's tyrosine kinase (BTK) by conjugation of BTK inhibitors with E3 ligase ligand and methods of use” (BeOne Medicines I GmbH, priority 2021, dated 2026).

For experiment [1], the system named is HEK-293 cells. Kind of experiment: HEK-293 cytotoxicity detection (CellTiter-Glo). The format is cell-based. The following applies: Homo sapiens, 72 h incubation, read-out: HEK293.
Excerpt: (§1) The IC50 (DC50) value of a compound can be obtained by fitting the following equation Y=Bottom+(TOP−Bottom)/(1+((IC50/X)^hillslope)) wherein, X and Y are known values, and IC50, Hillslope, Top and Bottom are the parameters obtained by fitting with software. Y is the inhibition percentage (calculated from the equation), X is the concentration of the compound; IC50 is the concentration of the compound when the 50% inhibition is reached. The smaller the IC50 value is, the stronger the inhibitory ability of the compound is. Vice versa, the higher the IC50 value is, the weaker the ability the inhibitory ability of the compound is; Hillslope represents the slope of the fitted curve, generally around 1*; Bottom represents the minimum value of the curve obtained by data fitting, which is generally 0%±20%; Top represents the maximum value of the curve obtained by data fitting, which is generally 100%±20%. The experimental data were fitted by calculating and analyzing with Dotmatics data analysis software. HEK-293 Cell Treatment
HEK-293 cells were treated with compounds diluted in 0.2% DMSO, dilution was done according to the following protocol: (1) making 500×stock solution in DMSO from 5 mM by 4-fold dilution, total 8 doses were included; (2) making 2×solution in cell culture medium by transferring 0.5 ul 500×stock solution into 125 ul medium; (3) adding 50 ul of 2×solution to cells for incubation of 72 h.
25 μl of the CellTiter-Glo® Reagent [(Promega)—Cat No. G7572] was added to each well in the 96-well plate. The contents were mixed for 2 minutes on an orbital shaker to induce cell lysis. The plate was then allowed to incubate at room temperature for 10 minutes to stabilize luminescent signal. Luminescence was recorded on BMG PheraStar with luminescence protocol.
as §1, with “IC50” for “IC50 (DC50)”, “Wherein,” for “wherein,”, “software.” for “software. HEK-293 Cell Treatment”

For experiment [2], the target named is T1, BTK (Homo sapiens, UniProt Q06187).
T1 construct: endogenous in cells; host or cells: TMD-8 cells
Kind of experiment: BTK degradation in TMD-8 cells (HTRF assay). The note with it: 6 h treatment, HTRF BTK degradation IC50 (DC50). The format is cell-based. Here is the method: TMD-8 cells were treated with compounds diluted in 0.2% DMSO, dilution was done according to the following protocol: (1) making 500×stock solution in DMSO from 1 mM by 6-fold dilution, total 8 doses were included; (2) making 2×solution in cell culture medium by transferring 0.5 μl 500×stock solution into 125 μl medium; (3) adding 15 μl of 2×solution to cells for incubation of 6 h.
After 6 h treatment, 10 μl 4×lysis buffer was added to each well; the plate was sealed and incubated for 30 min at room temperature on a plate shaker; Once the cells was lysed, 16 μL of cell lysate were transferred to a PE 384-well HTRF detection plate; 4 μL of pre-mixed HTRF antibodies were added to each well; the plate was covered with a plate sealer, and then spinned at 1000 rpm for 1 min, then incubated overnight at room temperature; the results were read on BMG PheraStar with HTRF protocol (337 nm-665 nm-620 nm).
as §1
(In general: In TR-FRET formats the signal depends on donor and acceptor labels being close together.)

The structures appear in SMILES notation.

T1 sequence (Q06187 whole entry): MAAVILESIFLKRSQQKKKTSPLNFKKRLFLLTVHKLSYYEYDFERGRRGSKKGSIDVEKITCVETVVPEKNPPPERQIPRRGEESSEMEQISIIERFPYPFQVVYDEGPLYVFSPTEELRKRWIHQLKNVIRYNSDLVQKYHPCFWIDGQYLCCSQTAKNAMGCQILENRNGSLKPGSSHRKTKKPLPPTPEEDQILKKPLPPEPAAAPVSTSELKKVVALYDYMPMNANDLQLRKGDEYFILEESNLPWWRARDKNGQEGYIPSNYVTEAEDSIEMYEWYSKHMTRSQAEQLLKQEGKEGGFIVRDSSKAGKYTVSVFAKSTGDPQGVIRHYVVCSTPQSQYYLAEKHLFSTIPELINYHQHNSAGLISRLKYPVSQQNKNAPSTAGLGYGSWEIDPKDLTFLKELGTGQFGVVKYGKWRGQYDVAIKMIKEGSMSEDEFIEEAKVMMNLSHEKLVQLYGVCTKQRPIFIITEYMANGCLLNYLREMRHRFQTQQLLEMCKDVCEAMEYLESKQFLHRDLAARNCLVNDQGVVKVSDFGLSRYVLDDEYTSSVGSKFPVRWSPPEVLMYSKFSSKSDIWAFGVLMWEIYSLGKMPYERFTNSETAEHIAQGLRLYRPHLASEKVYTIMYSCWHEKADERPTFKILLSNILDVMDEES

In the case of `Cc1cc(-c2cc(Nc3ccc(N4CCN(CC5CCN(c6ccc(N7CCC(=O)NC7=O)cc6)CC5)CC4)nc3)ncn2)ccc1[C@@H](C)NC(=O)c1nc(C(C)(C)C)no1` [Example 13, (R)-3-(tert-butyl)-N-(1-(4-(6-((6-(4-((1-(4-(2,4-dioxotetrahydropyrimidin-1(2H)-yl)phenyl)piperidin-4-yl)methyl)piperazin-1-yl)pyridin-3-yl)amino)pyrimidin-4-yl)-2-methylphenyl)ethyl)-1,2,4-oxadiazole-5-carboxamide], the IC50 in experiment [1] was over 10000 nM. Further, in experiment [2], the DC50 – broadly, the midpoint of the concentration-degradation curve – was 32.7 nM.

Turning to `Cc1cc(-c2cc(Nc3ncc(N4CCN(CC5CCN(c6ccc(N7CCC(=O)NC7=O)cc6)CC5)CC4)cn3)ncn2)ccc1[C@@H](C)NC(=O)c1nc(C(C)(C)C)no1` [Example 14, (R)-3-(tert-butyl)-N-(1-(4-(6-((5-(4-((1-(4-(2,4-dioxotetrahydropyrimidin-1(2H)-yl)phenyl)piperidin-4-yl)methyl)piperazin-1-yl)pyrimidin-2-yl)amino)pyrimidin-4-yl)-2-methylphenyl)ethyl)-1,2,4-oxadiazole-5-carboxamide], in experiment [1], the IC50 was over 10000 nM. In addition, the DC50 in experiment [2] came out at 3.21 nM.

`Cc1cc(-c2cc(Nc3ccc(N4CCN(CC5CCN(c6ccc(N7CCC(=O)NC7=O)cc6)CC5)CC4)nn3)ncn2)ccc1[C@@H](C)NC(=O)c1nc(C(C)(C)C)no1` [Example 15]: the IC50 in experiment [1] was over 10000 nM. This compound also came in with a DC50 in experiment [2] of 0.638 nM.

Regarding `Cc1cc(-c2cc(Nc3ccc(N4CCN(CC5CCN(c6ccc(N7CCC(=O)NC7=O)cc6)CC5)CC4)cn3)ncn2)ccc1[C@@H](C)NC(=O)c1nc(C(C)(C)C)no1` [Example 16, (R)-3-(tert-butyl)-N-(1-(4-(6-((5-(4-((1-(4-(2,4-dioxotetrahydropyrimidin-1(2H)-yl)phenyl)piperidin-4-yl)methyl)piperazin-1-yl)pyridin-2-yl)amino)pyrimidin-4-yl)-2-methylphenyl)ethyl)-1,2,4oxadiazole-5-carboxamide], the IC50 in experiment [1] was over 10000 nM. In experiment [2], this compound returned a DC50 of 1.29 nM.

`Cc1cc(-c2cc(Nc3ccc(N4CCN(CC5CCN(c6ccc(N7CCC(=O)NC7=O)c(F)c6)CC5)CC4)cn3)ncn2)ccc1[C@@H](C)NC(=O)c1nc(C(C)(C)C)no1` [Example 17, (R)-3-(tert-butyl)-N-(1-(4-(6-((5-(4-((1-(4-(2,4-dioxotetrahydropyrimidin-1(2H)-yl)-3-fluorophenyl)piperidin-4-yl)methyl)piperazin-1-yl)pyridin-2-yl)amino)pyrimidin-4-yl)-2-methylphenyl)ethyl)-1,2,4-oxadiazole-5-carboxamide]: the IC50 in experiment [1] was over 10000 nM. Half-maximal degradation in experiment [2] (DC50) was put at 2.2 nM.

Consider `Cc1cc(-c2cc(Nc3ccc(N4CCN(CC5CCN(c6ccc(N7CCC(=O)NC7=O)c(C)c6)CC5)CC4)cn3)ncn2)ccc1[C@@H](C)NC(=O)c1nc(C(C)(C)C)no1` [Example 18, (R)-3-(tert-butyl)-N-(1-(4-(6-((5-(4-((1-(4-(2,4-dioxotetrahydropyrimidin-1(2H)-yl)-3-methylphenyl)piperidin-4-yl)methyl)piperazin-1-yl)pyridin-2-yl)amino)pyrimidin-4-yl)-2-methylphenyl)ethyl)-1,2,4-oxadiazole-5-carboxamide], for which the IC50 in experiment [1] was over 10000 nM. The compound further returned a DC50 in experiment [2] of 1.15 nM.

With `Cc1cc(-c2cc(Nc3ccc(N4CCN(CC5CN(c6ccc(C7CCC(=O)NC7=O)cc6)C5)CC4)cn3)ncn2)ccc1[C@@H](C)NC(=O)c1nc(C(C)(C)C)no1` (stereo partly drawn) [Example 19, 3-(tert-butyl)-N-((1R)-1-(4-(6-((5-(4-((1-(4-(2,6-dioxopiperidin-3-yl)phenyl)azetidin-3-yl)methyl)piperazin-1-yl)pyridin-2-yl)amino)pyrimidin-4-yl)-2-methylphenyl)ethyl)-1,2,4-oxadiazole-5-carboxamide], in experiment [1], the IC50 was over 10000 nM. In addition, in experiment [2], the DC50 is 2.51 nM.

For `Cc1cc(-c2cc(Nc3ccc(N4CC(CN5CCN(c6ccc(N7CCC(=O)NC7=O)cc6)CC5)C4)cn3)ncn2)ccc1[C@@H](C)NC(=O)c1nc(C(C)(C)C)no1` [Example 20, (R)-3-(tert-butyl)-N-(1-(4-(6-((5-(3-((4-(4-(2,4-dioxotetrahydropyrimidin-1(2H)-yl)phenyl)piperazin-1-yl)methyl)azetidin-1-yl)pyridin-2-yl)amino)pyrimidin-4-yl)-2-methylphenyl)ethyl)-1,2,4-oxadiazole-5-carboxamide], in experiment [1], the IC50 is over 10000 nM. This compound yielded a DC50 in experiment [2] of 1.23 nM.

As for `Cc1cc(-c2cc(Nc3ccc(N4CCC(CN5CCN(c6ccc(N7CCC(=O)NC7=O)cc6)CC5)CC4)cn3)ncn2)ccc1[C@@H](C)NC(=O)c1nc(C(C)(C)C)no1` [Example 21, (R)-3-(tert-butyl)-N-(1-(4-(6-((5-(4-((4-(4-(2,4-dioxotetrahydropyrimidin-1(2H)-yl)phenyl)piperazin-1-yl)methyl)piperidin-1-yl)pyridin-2-yl)amino)pyrimidin-4-yl)-2-methylphenyl)ethyl)-1,2,4-oxadiazole-5-carboxamide], in experiment [1], the IC50 is over 10000 nM. For the same compound, it took 2.11 nM to reach half-maximal degradation in experiment [2] (DC50).

On to `Cc1cc(-c2cc(Nc3ccc(N4CCN(CC5CN(c6ccc(N7CCC(=O)NC7=O)cc6)C5)CC4)cn3)ncn2)ccc1[C@@H](C)NC(=O)c1nc(C(C)(C)C)no1` [Example 22, (R)-3-(tert-butyl)-N-(1-(4-(6-((5-(4-((1-(4-(2,4-dioxotetrahydropyrimidin-1(2H)-yl)phenyl)azetidin-3-yl)methyl)piperazin-1-yl)pyridin-2-yl)amino)pyrimidin-4-yl)-2-methylphenyl)ethyl)-1,2,4-oxadiazole-5-carboxamide], for which, in experiment [1], the IC50 is over 10000 nM. Also, it took 1.58 nM to reach half-maximal degradation in experiment [2] (DC50).

On to `Cc1cc(-c2cc(Nc3ccc(C4CN(CC5CCN(c6ccc(N7CCC(=O)NC7=O)cc6)CC5)C4)cn3)ncn2)ccc1[C@@H](C)NC(=O)c1nc(C(C)(C)C)no1` [Example 23, (R)-3-(tert-butyl)-N-(1-(4-(6-((5-(1-((1-(4-(2,4-dioxotetrahydropyrimidin-1(2H)-yl)phenyl)piperidin-4-yl)methyl)azetidin-3-yl)pyridin-2-yl)amino)pyrimidin-4-yl)-2-methylphenyl)ethyl)-1,2,4-oxadiazole-5-carboxamide], for which the IC50 in experiment [1] was determined as 2900 nM. Also, in experiment [2], half-maximal degradation (DC50) was put at 1.14 nM.

For the compound `Cc1cc(-c2cc(Nc3ccc(N4CCN(C[C@@H]5CCN(c6ccc(N7CCC(=O)NC7=O)cc6)C5)CC4)cn3)ncn2)ccc1[C@@H](C)NC(=O)c1nc(C(C)(C)C)no1` [Example 24, 3-(tert-butyl)-N—((R)-1-(4-(6-((5-(4-(((S)-1-(4-(2,4-dioxotetrahydropyrimidin-1(2H)-yl)phenyl)pyrrolidin-3-yl)methyl)piperazin-1-yl)pyridin-2-yl)amino)pyrimidin-4-yl)-2-methylphenyl)ethyl)-1,2,4-oxadiazole-5-carboxamide], the IC50 in experiment [1] is over 10000 nM. In experiment [2], this compound came in with a half-maximal degradation concentration (DC50) of 5.63 nM.

With `Cc1cc(-c2cc(Nc3ccc(N4CCN(C(=O)C5CN(c6ccc(N7CCC(=O)NC7=O)cc6)C5)CC4)cn3)ncn2)ccc1[C@@H](C)NC(=O)c1nc(C(C)(C)C)no1` [Example 25, (R)-3-(tert-butyl)-N-(1-(4-(6-((5-(4-(1-(4-(2,4-dioxotetrahydropyrimidin-1(2H)-yl)phenyl)azetidine-3-carbonyl)piperazin-1-yl)pyridin-2-yl)amino)pyrimidin-4-yl)-2-methylphenyl)ethyl)-1,2,4-oxadiazole-5-carboxamide], the IC50 in experiment [1] is over 10000 nM. The compound also gave a 50% degradation concentration (DC50) in experiment [2] of 0.935 nM.
